This note sets out measurements from US9072709B2 (The Regents of the University of California, priority 2009, dated 2015).

For one series, the target named is T1, rhOP-1 (rhBMP-7) (Homo sapiens, UniProt P18075).
T1 construct: purchased R&D Systems, Minneapolis, Minn
T1 sequence (P18075 293-431): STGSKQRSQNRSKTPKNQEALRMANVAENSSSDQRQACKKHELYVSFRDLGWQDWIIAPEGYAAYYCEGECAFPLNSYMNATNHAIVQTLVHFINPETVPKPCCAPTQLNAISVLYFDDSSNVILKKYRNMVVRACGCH
Nature of the series: Surface plasmon resonance kinetic analysis (Biacore X), ligand rhOP-1. The settings on record: ligand rhOP-1 (rhBMP-7). The class given is binding. As to the method: (§1) The supernatant was decanted and used for analyses. Protein concentrations were determined suing UV spectroscopy at an absorbance of 280 nm. Extinction coefficients were calculated using ProtParam tool (www.expasy.ch/tools/protparam.html). Flow rates ranged from 5 to 50 μl/min, and injection volumes were 20 to 100 μl. To ensure uniformity, an effort was made to react sufficient ligand to the chip to give a baseline value of about 2500 RU (response units). The kinetic constants ka (on rate, association constant, “recognition”) and kd (off rate, dissociation constant, “stability”) as well as the equilibrium constant KD (equilibrium constant, “affinity”) were determined by a Langmuir analysis using BIAevaluation software (version 3.2) installed on the instrument by the manufacturer.

For another series, the system named is rhTGF-β. In words: Surface plasmon resonance kinetic analysis (Biacore X), ligand rhTGF-β. The class given is binding, human. As for the experimental part:
as §1
(In SPR one partner is held on a chip, and binding of the other changes the refractive index at the surface.)

Another series has as its target T2, rmGDF-5 (Mus musculus, UniProt P43027).
T2 construct: purchased R&D Systems, Minneapolis, Minn
T2 sequence (P43027 376-495): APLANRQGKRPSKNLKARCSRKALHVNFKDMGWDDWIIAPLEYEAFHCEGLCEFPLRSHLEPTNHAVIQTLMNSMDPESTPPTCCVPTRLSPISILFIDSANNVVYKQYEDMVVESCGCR
Nature of the series: Surface plasmon resonance kinetic analysis (Biacore X), ligand rmGDF-5. It is filed as binding. As to the method: The supernatant was decanted and used for analyses. […] Extinction coefficients were calculated using ProtParam tool (www.expasy.ch/tools/protparam.html). Flow rates ranged from 5 to 50 μl/min, and injection volumes were 20 to 100 μl. To ensure uniformity, an effort was made to react sufficient ligand to the chip to give a baseline value of about 2500 RU (response units).

The next series has as its system Swiss-Weber mice. Nature of the series: Mouse hindquarter (muscle pouch) ectopic bone formation assay, BBP alone or with rhBMP-2. As to conditions: for Bone Area / Bone Mineral Content: 21 days, mean SE. The class given is in vivo. As for the experimental part: The osteogenic activity of material was tested using male Swiss-Weber mice aged 8 to 10 weeks were used (Taconic Farms, Germantown, N.Y.). […] The dried material was placed in a #5 gelatin capsule and sterilized by exposure to chloroform vapor. To conduct the assay, mice were anesthetized using 1% isoflurane delivered in oxygen at 2 l/min through a small animal anesthesia machine (VetEquip, Pleasanton, Calif.). Animals were affixed to a surgery board and the fur over the hindquarters shaved. The skin was cleaned with 70% ethanol and a midline incision made over the spine adjacent to the hindquarters. Blunt dissection with scissors was used to expose the quadriceps muscle on one side. A small pouch was made in the muscle using the point of scissors and the #5 capsule containing the test material was inserted into the pouch. The skin was then closed with three 11 mm Michel surgical clips and the animal returned to its cage for monitoring.
After 21 days the animals were killed and the hindquarter removed. Radiological examination of the specimens was accomplished using a small parts X-Ray cabinet (Faxitron, Wheeling, Ill.). For quantization of bone formation, bone area and the bone mineral content (BMC) of an area of interest encompassing the site of ectopic bone formation was determined using a PIXImus2 small animal densitometer (GE Lunar, Madison, Wis.). Specimens were then placed in buffered formalin and submitted for routine processing for histological examination.

For a further series, the system named is Lewis rats. Nature of the series: Posterolateral intertransverse process spinal fusion at L4-L5 (radiographs, manual palpation, micro-CT). The class given is in vivo, rat. As to conditions: ACS with 1000 μg BBP, no rhOP-1, 8 weeks. From the text: A total of 120 male Lewis rats (8 weeks of age, 200-260 g, Charles River, Wilmington, Mass.) were divided into 8 groups. Groups differed only by the materials added to the ACS (5×5×13 mm) that were applied to the surgical sites. The preparation of the implants was previously described in detail. (Alanay, et al., The adjunctive effect of a binding peptide on bone morphogenetic protein enhanced bone healing in a rodent model of spinal fusion. Spine 2008; 33:1709-13). Implanted rhOP-1 was obtained from Stryker Biotech, Hopkinton, Mass. […] Animals were sacrificed 8 weeks after surgery with CO2.
Surgical Technique. Animals were anesthetized with 2-2.5% isoflurane administered in oxygen (1 L/min) and the surgical site was shaved and disinfected with alternative betadine and 70% alcohol. Animals were premedicated with 0.15 mg buprenorphine and postoperatively received tapered doses every 12 hours for 2 days. […]
Radiographic Analysis. […] Radiographs were evaluated by 3 independent observers employing the following standardized scale: 0: no fusion; 1: incomplete fusion with bone formation present; and 2: complete fusion. […]
Manual Assessment of Fusion. Eight weeks after surgery, the spines were removed and evaluated by three blinded independent observers for intersegmental motion. […] Spines were scored as either fused or not fused. […]

The next series has as its target T3, rhBMP-2 (Homo sapiens, UniProt P12643).
T3 construct: purchased R&D Systems, Minneapolis, Minn
T3 sequence (P12643 283-396): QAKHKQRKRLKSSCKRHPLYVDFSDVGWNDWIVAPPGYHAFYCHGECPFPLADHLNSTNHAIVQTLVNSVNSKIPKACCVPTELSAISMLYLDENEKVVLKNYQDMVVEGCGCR
Nature of the series: Surface plasmon resonance kinetic analysis (Biacore X), ligand rhBMP-2. It is filed as binding. As for the experimental part:
as §1

Setting [1] is: BBP 50 μg implanted with 5 μg of rhBMP-2, densitometry.
Where [2] appears, read: BBP 500 μg implanted with 5 μg of rhBMP-2, densitometry.

As to `CSCC[C@@H]1NC(=O)[C@H](CCCNC(=N)N)NC(=O)[C@H](C(C)C)NC(=O)[C@H]([C@@H](C)O)NC(=O)[C@H](CO)NC(=O)[C@H](CCCNC(=N)N)NC(=O)[C@@H](N)CSSC[C@@H](C(=O)O)NC(=O)[C@H](CCCNC(=N)N)NC(=O)[C@H](C(C)C)NC(=O)[C@H](Cc2c[nH]c3ccccc23)NC(=O)[C@H](C(C)C)NC(=O)[C@H](CC(N)=O)NC(=O)[C@H](CCC(N)=O)NC(=O)[C@H](C(C)C)NC(=O)[C@H](CCC(N)=O)NC(=O)[C@H](CCC(=O)O)NC(=O)[C@H](C)NC(=O)[C@H](CO)NC1=O` [BBP], the “kd “stability”” value amounted to 0.00369 s⁻¹ on rhOP-1 (rhBMP-7), 0.00175 s⁻¹ at rhTGF-β (ligand rhTGF-β), 0.00352 s⁻¹ on rmGDF-5 and 0.00169 s⁻¹ at rhBMP-2 (ligand rhBMP-2). Further, the “ka “recognition”” value with rhTGF-β (ligand rhTGF-β) worked out at 27700 M⁻¹ s⁻¹. Also, on rhTGF-β (ligand rhTGF-β on CM-5 chip, Langmuir analysis), the “KD (kd/ka) “affinity”” value worked out at 68 nM. In addition, in the series with Swiss-Weber mice (500 μg of BBP implanted with 5 μg of rhBMP-2), the “amount of ectopic bone formed, measured by densitometry, versus identical amount of rhBMP-2 alone” value is listed as “consistently greater”. Further, the “histological section of mouse muscle” value in the series on Swiss-Weber mice (500 μg of BBP in atelocollagen, 21 days after implantation, H & E stain) is listed as “dystrophic calcification primarily associated with intramuscular adipose tissue”. The “calcification when implanted alone with carrier (radiogram)” value in the series on Swiss-Weber mice (500 μg of BBP in atelocollagen, mouse hind quarters, 21 days after implantation) was “induced calcification”. Also, the “Bone Area” value in the series on Swiss-Weber mice (setting [1]) stood at 0.159 ± 0.0606 cm^2; in the series on Swiss-Weber mice (setting [2]) it was 0.226 ± 0.0270 cm^2. Moreover, the figures for the “Bone Mineral Content” value in the series on Swiss-Weber mice (setting [1]) and in the series on Swiss-Weber mice (setting [2]) were 0.00388 ± 0.0017 g and 0.00528 ± 0.00068 g, respectively. Also, the “ectopic calcification in BBP only treatment groups” value with Lewis rats was “Nor was ectopic calcification observed”. In addition, the “induction of spinal fusion by BBP by itself” value in the series with Lewis rats is on record as “did not induce any degree of fusion”.

B1: spp24: parental protein of BBP, secreted phosphoprotein, 24 kD (protein)
chain: FPVYDYDPASLKEALSASVAKVNSQSLSPYLFRAFRSSVKRVNALDEDSLTMDLEFRIQETTCRRESEADPATCDFQRGYHVPVAVCRSTVRMSAEQVQNVWVRCHWSSSSGSSSSEEMFFGDILGSSTSRNSYLLGLTPDRSRGEPLYEPSREMRRNFPLGNRRYSNPWPRARVNPGFE
Consider B1, for which, in the series with rhBMP-2 (ligand rhBMP-2), the “ka “recognition”” value was determined as 311000 M⁻¹ s⁻¹ and the “kd “stability”” value was 0.0055 s⁻¹. Moreover, in the series with rhBMP-2 (ligand rhBMP-2 on CM-5 chip, Langmuir analysis), the “KD (kd/ka) “affinity”” value came to 17.7 nM.
